Our source for the inhibition values is US8791132B2, “Compounds and methods for treatment of hypertension” (Medivation Technologies, Inc., priority 2011, dated 2014).

Read-outs that look alike come from different tables or passages of the source.

Experiment [1] has as its target T1, human recombinant adrenergic α2B receptor (Homo sapiens, UniProt P18089).
T1 construct: expressed in transfected cells; host or cells: CHO-K1
T1 sequence (P18089 1-450): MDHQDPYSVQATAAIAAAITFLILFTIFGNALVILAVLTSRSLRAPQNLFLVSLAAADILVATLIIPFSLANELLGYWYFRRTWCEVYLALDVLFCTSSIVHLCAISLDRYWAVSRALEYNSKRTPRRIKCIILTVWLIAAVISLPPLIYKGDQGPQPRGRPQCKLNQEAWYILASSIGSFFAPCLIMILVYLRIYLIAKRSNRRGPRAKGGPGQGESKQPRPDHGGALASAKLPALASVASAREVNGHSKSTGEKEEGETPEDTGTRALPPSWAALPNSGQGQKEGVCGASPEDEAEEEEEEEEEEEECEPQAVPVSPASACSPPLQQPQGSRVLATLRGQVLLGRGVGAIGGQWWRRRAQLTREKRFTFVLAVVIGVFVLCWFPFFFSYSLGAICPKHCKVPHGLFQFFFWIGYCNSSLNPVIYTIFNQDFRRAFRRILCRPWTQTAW
The experiment can be described thus: Radioligand binding, adrenergic α2B ([3H]Rauwolscine). The procedure, abridged: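 Membranes from CHO-K1 cells expressing human recombinant α2B, in 50 mM Tris-HCl pH 7.4, 12.5 mM MgCl2, 1 mM EDTA, 0.2% BSA, incubated with compound and 2.5 nM [3H]Rauwolscine, 60 min, 25 °C.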

Experiment [2] addresses T2, human recombinant adrenergic α2A receptor (Homo sapiens, UniProt P08913).
T2 construct: expressed in transfected cells; host or cells: insect Sf9 cells
T2 sequence (P08913 1-465): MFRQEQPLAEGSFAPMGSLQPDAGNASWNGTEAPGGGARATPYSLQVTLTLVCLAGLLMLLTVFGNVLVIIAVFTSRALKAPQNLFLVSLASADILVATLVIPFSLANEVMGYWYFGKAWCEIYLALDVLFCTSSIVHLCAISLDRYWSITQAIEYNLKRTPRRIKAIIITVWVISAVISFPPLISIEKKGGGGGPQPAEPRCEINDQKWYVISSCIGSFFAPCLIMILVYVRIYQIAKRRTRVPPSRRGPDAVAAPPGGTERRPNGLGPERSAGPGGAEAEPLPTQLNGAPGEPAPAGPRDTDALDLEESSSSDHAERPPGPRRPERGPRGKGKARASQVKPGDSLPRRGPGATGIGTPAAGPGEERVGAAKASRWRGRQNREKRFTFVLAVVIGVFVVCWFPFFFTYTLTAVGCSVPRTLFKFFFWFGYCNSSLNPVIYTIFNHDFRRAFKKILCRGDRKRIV
The experiment can be described thus: Radioligand binding, adrenergic α2A ([3H]MK-912). The procedure, abridged: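 Sf9 membranes, 1 nM [3H]MK-912, 60 min, 25 °C, Tris-HCl pH 7.4/MgCl2/EDTA buffer. NSB: 10 μM WB-4101. Filtration, counting; % inhibition of specific binding.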

In experiment [3] the target is T3, human recombinant adrenergic α1D receptor (Homo sapiens, UniProt P25100).
T3 construct: expressed in transfected cells; host or cells: HEK-293
T3 sequence (P25100 1-572): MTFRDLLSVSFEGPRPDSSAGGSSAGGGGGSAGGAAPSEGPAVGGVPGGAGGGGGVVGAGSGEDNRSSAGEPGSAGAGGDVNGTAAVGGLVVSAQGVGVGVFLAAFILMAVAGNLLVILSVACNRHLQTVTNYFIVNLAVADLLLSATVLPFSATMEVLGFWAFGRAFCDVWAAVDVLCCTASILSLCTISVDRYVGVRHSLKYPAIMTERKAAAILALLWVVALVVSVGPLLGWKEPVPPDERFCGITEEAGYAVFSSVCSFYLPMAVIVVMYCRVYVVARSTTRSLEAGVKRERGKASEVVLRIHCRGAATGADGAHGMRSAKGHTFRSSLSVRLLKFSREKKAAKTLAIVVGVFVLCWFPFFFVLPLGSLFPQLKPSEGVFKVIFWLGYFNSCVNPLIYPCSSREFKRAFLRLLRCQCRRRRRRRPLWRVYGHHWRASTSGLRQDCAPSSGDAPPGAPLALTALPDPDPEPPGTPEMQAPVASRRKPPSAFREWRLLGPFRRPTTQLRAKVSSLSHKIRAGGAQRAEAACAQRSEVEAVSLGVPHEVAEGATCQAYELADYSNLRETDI
The experiment can be described thus: Radioligand binding, adrenergic α1D ([3H]Prazosin). The method, then:
Compounds were incubated with 0.6 nM [3H]Prazosin for 60 min at 25° C. Non-specific binding was estimated in the presence of 10 μM phentolamine. Receptor proteins were filtered and washed, the filters were then counted to determine [3H]Prazosin specifically bound. […] Biochemical assay results are presented as the percent inhibition of specific binding in Table B1.

The target of experiment [4] is T4, rat adrenergic α1B receptor (Rattus norvegicus, UniProt P15823).
T4 construct: rat adrenergic α1B receptor obtained from Wistar Rat liver; from tissue; host or cells: Wistar rat liver
T4 sequence (P15823 1-515): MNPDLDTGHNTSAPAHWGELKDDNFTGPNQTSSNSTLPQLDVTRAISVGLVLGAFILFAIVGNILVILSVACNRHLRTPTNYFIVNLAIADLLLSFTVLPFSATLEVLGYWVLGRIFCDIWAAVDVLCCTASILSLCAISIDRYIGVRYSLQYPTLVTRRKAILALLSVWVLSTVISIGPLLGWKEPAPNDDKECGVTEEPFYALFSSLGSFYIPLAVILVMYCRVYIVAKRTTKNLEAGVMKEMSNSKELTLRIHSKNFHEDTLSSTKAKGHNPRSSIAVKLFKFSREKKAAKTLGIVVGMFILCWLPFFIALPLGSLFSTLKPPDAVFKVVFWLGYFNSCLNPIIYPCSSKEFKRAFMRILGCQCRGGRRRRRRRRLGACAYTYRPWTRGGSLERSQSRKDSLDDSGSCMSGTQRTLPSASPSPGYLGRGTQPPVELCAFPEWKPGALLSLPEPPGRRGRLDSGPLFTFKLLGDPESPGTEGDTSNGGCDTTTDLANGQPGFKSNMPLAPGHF
The experiment can be described thus: Radioligand binding, adrenergic α1B ([3H]Prazosin). In short, it runs like this:
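Specific binding, taken as total minus that remaining with 10 μM phentolamine, is measured after filtration and counting. Rat liver receptor preparation and 0.25 nM [3H]prazosin are incubated with compound in 50 mM Tris-HCl (pH 7.4, 0.5 mM EDTA) at 25° C for 60 min. Activity is reported as percent inhibition.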

Where [5] appears, read: 0.1 μM compound, read-out: Percentage inhibition of ligand binding, Adrenergic α2B.
Setting [6] is: 0.1 μM compound, read-out: Percentage inhibition of ligand binding, Adrenergic α2A.
Where [7] appears, read: 0.1 μM compound, read-out: Percentage inhibition of ligand binding, Adrenergic α1D.
Where [8] appears, read: 0.1 μM compound, read-out: Percentage inhibition of ligand binding, Adrenergic α1B.
The mark [9] stands for this setting: read-out: Percentage inhibition of ligand binding, Adrenergic α2B (0.1 μM), compound at 0.1 μM, [3H]Rauwolscine, repeat datapoints each shown.
Where [10] appears, read: read-out: Percentage inhibition of ligand binding, Adrenergic α2A (0.1 μM), compound at 0.1 μM, [3H]MK-912, repeat datapoints each shown.
The mark [11] stands for this setting: read-out: Percentage inhibition of ligand binding, Adrenergic α1D (0.1 μM), compound at 0.1 μM, [3H]Prazosin, repeat datapoints each shown.
Setting [12] is: read-out: Percentage inhibition of ligand binding, Adrenergic α1B (0.1 μM), compound at 0.1 μM, [3H]Prazosin, repeat datapoints each shown.

One may read the inhibition as the drop in the measured response relative to a control, in per cent. As for `Cc1ccc2c(c1)c1c(n2C#Cc2cnc3ccccc3c2)CCN(C)C1` [compound 321, 2,8-dimethyl-5-quinolin-3-ylethynyl-2,3,4,5-tetrahydro-1H-pyrido[4,3-b]indole], the inhibition at 0.1 µM was 90% in experiment [1] (setting [5]), 59% in experiment [2] (setting [6]), 66% in experiment [3] (setting [7]) and 94% in experiment [4] (setting [8]).
The corresponding values for `Cc1ccc2c(c1)c1c(n2/C=C/c2cccc3cnccc23)CCN(C)C1` [compound 316, 5-(2-isoquinolin-5-yl-vinyl)-2,8-dimethyl-2,3,4,5-tetrahydro-1H-pyrido[4,3-b]indole] are 45%, 90%, 81% and 93%.
The corresponding values for `C/C(=C\n1c2c(c3cc(C)ccc31)CN(C)CC2)c1cc(C)cs1` [compound 285] are 97%, 98%, 71% and 63%.
Consider `CNC(=O)c1cccc(/C(C)=C/n2c3c(c4cc(C)ccc42)CN(C)CC3)c1` [compound 107], for which the inhibition at 0.1 µM in experiment [1] (setting [9]) was 85%; in experiment [2] (setting [10]), 10%; in experiment [3] (setting [11]) it was 63%; in experiment [4] (setting [12]), 56%.
As for `CCCc1ccc(/C(C)=C/n2c3c(c4cc(C)ccc42)CN(C)CC3)cn1` [compound 329], the inhibition at 0.1 µM in experiment [1] (setting [5]) is 104%; in experiment [2] (setting [6]), 60%; in experiment [3] (setting [7]), 78%; in experiment [4] (setting [8]), 68%.
The corresponding values for `Cc1ccc2c(c1)c1c(n2C2=C(c3ccc(F)cc3)CCC2)CCN(C)C1` [compound 301, 5-(2-(4-fluorophenyl)cyclopent-1-enyl)-2,8-dimethyl-2,3,4,5-tetrahydro-1H-pyrido[4,3-b]indole] are 84%, 87%, 36% and 29%.
For `CCC1c2c(c3cc(Cl)ccc3n2CC(C)(O)c2ccc(F)cc2)CCN1C` (stereo not drawn) [II-161], the inhibition at 0.1 µM in experiment [1] (setting [9]) was 13%; in experiment [2] (setting [10]), 7%; in experiment [3] (setting [11]), 2%; in experiment [4] (setting [12]) it was 7%.
Consider `C/C(=C\n1c2c(c3cc(Cl)ccc31)CN(C)CC2)c1ccc(S(C)(=O)=O)cc1` [compound 281], for which the inhibition at 0.1 µM in experiment [1] (setting [5]) was 90%; in experiment [2] (setting [6]), 72%; in experiment [3] (setting [7]) it was 47%; in experiment [4] (setting [8]) it was 67%.
For `C/C(=C\n1c2c(c3cc(Cl)ccc31)CCN(C)CC2)c1cccnc1` [compound 244], in that order: 99%, 76%, 42% and 78%.
Consider `C/C(=C\n1c2c(c3cc(C)ccc31)C1CCC(C2)N1C)c1ccc(Cl)cc1Cl` (stereo not drawn) [compound 225], for which the inhibition at 0.1 µM in experiment [1] (setting [9]) worked out at 80%; in experiment [2] (setting [10]) it was 75%; in experiment [3] (setting [11]), 12%; in experiment [4] (setting [12]), 27%.
On to `COc1ccc(CCn2c3c(c4cc(C)ccc42)CN(C)CC3)cc1` [compound 218], for which the inhibition at 0.03 µM worked out at 110% in experiment [1] (read-out: Percentage inhibition of ligand binding, Adrenergic α2B (0.03 μM), compound at 0.03 μM, [3H]Rauwolscine, repeat datapoints each shown); 85% in experiment [2] (read-out: Percentage inhibition of ligand binding, Adrenergic α2A (0.03 μM), compound at 0.03 μM, [3H]MK-912, repeat datapoints each shown); 60% in experiment [3] (read-out: Percentage inhibition of ligand binding, Adrenergic α1D (0.03 μM), compound at 0.03 μM, [3H]Prazosin, repeat datapoints each shown); 79% in experiment [4] (read-out: Percentage inhibition of ligand binding, Adrenergic α1B (0.03 μM), compound at 0.03 μM, [3H]Prazosin, repeat datapoints each shown).
On to `Cc1ccc2c(c1)c1c(n2C#Cc2cccc3cnccc23)CCN(C)C1` [compound 313, 5-isoquinolin-5-ylethynyl-2,8-dimethyl-2,3,4,5-tetrahydro-1H-pyrido[4,3-b]indole], for which the inhibition at 0.1 µM was 73% in experiment [1] (setting [5]), 73% in experiment [2] (setting [6]), 53% in experiment [3] (setting [7]) and 92% in experiment [4] (setting [8]).
